Source: patent publication US8877736B2, “Method for treating keloid by administering 3′sialyllactose or 6′sialyllactose as a pharmaceutical or cosmetic” (Benebiosis Co., Ltd., priority 2009, dated 2014)
Entries after “also recorded” stand apart in the source; their conditions may differ.

Legend:
Assay type in all cases: cell-based
RAW 264.7 cells = experiment: Cytotoxicity analysis, MTT assay on RAW 264.7 cells; conditions: 0.001, 0.01, 0.1 and 1 mM, 5 days, compared with negative control (PBS), FIGS. 4a-4b
Description: Cytotoxicity of sialyllactose to cells other than keloid fibroblasts was analyzed RAW 264.7 cells (TIB-71) were purchased from ATCC. Dulbecco's Modified Eagle's Medium (DMEM) was purchased from JBI and supplemented with 100 U/ml penicillin, 100 μg/ml streptomycin, and 10% fetal bovine serum (FBS). Medium was replaced every 3-4 days. The cells were incubated at 37° C. in a CO2 incubator. For investigation of cell proliferation rate, MTT quantification was performed. RAW 264.7 cells were plated at 2.0×10^3 cells/well in a 96-well plate and 3′-SL or 6′-SL was treated at a concentration of 0.001, 0.01, 0.1, and 1 mM. A negative control group was treated with PBS. After 5 days, the cells were incubated with 500 μg/ml MTT solution for 4 hr at 37° C. […], the absorbance at 540 nm was measured using formazan in diumsulfoxide (DMSO). The relative survival rates of groups treated with sialyllactose were calculated with reference to untreated sialyllactose group (i.e., PBS treatment group, 100% survival rate).

[1] = test system: Human keloid fibroblasts (CRL 1762); experiment: Cell counting of keloid fibroblasts (trypan blue); conditions: 1 mM, up to 12 days, compared with negative control (PBS), FIG. 1
Description: (§1) Human keloid fibroblasts (CRL 1762) were purchased from ATCC. Medium has the following composition: DMEM (Dulbecco's Modified Eagle's Medium), 4 mM L-glutamine, 100 μg/ml streptomycin, 100 U/ml penicillin and 10% fetal bovine serum. The fibroblasts were incubated at 37° C. in a CO2 incubator under humid atmosphere (5% CO2, 95% air). Medium was replaced every 3-4 days.
Keloid fibroblasts (KF) were plated at 5×10^4 cells/well in a 6-well plate. 24 hours later, KF was incubated with 1 mM 3′-sialyllactose (3′-SL), 6′-sialyllactose (6′-SL) or excipient (Phosphate buffered saline, PBS). 3′-Sialyllactose (3′-N-Acetylneuraminyl-D-lactose, 3′-Sialyl-D-lactose or α-NeuNAc-(2→3)-β-D-Gal-(1→4)-D-Glc) or 6′-sialyllactose (6′-N-Acetylneuraminyl-lactose, 6′-Sialyl-D-lactose, or α-NeuNAc-(2→6)-β-D-Gal-(1→4)-D-Glc) were purchased from Sigma-Aldrich. After 0, 1, 5, 7, 9, and 12 days, KF was collected using trypsin-EDTA and stained with trypan blue, followed by cell counting using a blood cell counter (C-Chip DHC N15, Incyto).

[2] = test system: Human keloid fibroblasts (CRL 1762); experiment: TUNEL analysis of apoptosis of keloid fibroblasts; conditions: 1 mM, 0-5 days, FIG. 3
Description: as §1
Using in situ cell death detection kit (TUNEL, Roche Diagnostics), apoptosis was analyzed and DNA fragmentation in keloid fibroblasts was quantified. A single layer of keloid fibroblasts was cultured directly in a tissue culture flask and then incubated with 1 mM 3′-SL, 6′-SL or PBS. Following 0, 1, 3 and 5 days, the analysis was carried out according to the manufacturer's manual.

[3] = test system: Human keloid fibroblasts (CRL 1762); experiment: XTT cell proliferation analysis of keloid fibroblasts; conditions: 1 mM, 0-5 days, compared with negative control (PBS), FIG. 2
Description: as §1
The rate of cell proliferation was measured using Roche's Cell Proliferation Kit II (XTT) system. Keloid fibroblasts (KF) were plated at 2.0×10^3 cells/well in a 96-well plate and then treated 3′-SL, 6′-SL and PBS at a concentration of 1 mM, respectively. After 0, 1, 3 and 5 days, KF was incubated with 50 μl/well of XTT (sodium 3′-[1-(phenylaminocarbonyl)-3,4-tetrazolium]-bis(4-methoxy-6-nitro) benzene sulfonic acid hydrate) reagent for 4 hr at 37° C. and the absorbance at 470 nm was measured using a microplate reader. The relative survival rates of groups treated with sialyllactose were calculated with reference to untreated sialyllactose group (i.e., excipient treatment group, 100% survival rate).

| Structure (SMILES) | proliferation of RAW 264.7 cells (MTT) (RAW 264.7 cells) | growth of keloid fibroblasts (cell counting) [1] | apoptosis of keloid fibroblasts (TUNEL) [2] | proliferation of keloid fibroblasts (XTT; text says MTT analysis) [3] | apoptosis of keloid fibroblasts (TUNEL) ([2]; listed as 6′ SL) |
| --- | --- | --- | --- | --- | --- |
| CC(=O)N[C@H]1[C@H]([C@H](O)[C@H](O)CO)O[C@@](O[C@H]2[C@@H](O)[C@@H](CO)O[C@@H](O[C@H]3[C@H](O)[C@@H](O)C(O)O[C@@H]3CO)[C@@H]2O)(C(=O)O)C[C@@H]1O (stereo partly drawn) [3′-SL, α-NeuNAc-(2→3)-β-D-Gal-(1→4)-D-Glc] | not affected | considerably inhibited | induced | considerably inhibited |  |
| CC(=O)N[C@H]1[C@H]([C@H](O)[C@H](O)CO)O[C@@](OC[C@H]2O[C@@H](O[C@H]3[C@H](O)[C@@H](O)[C@H](O)O[C@@H]3CO)[C@H](O)[C@@H](O)[C@H]2O)(C(=O)O)C[C@@H]1O [6′-SL, α-NeuNAc-(2→6)-β-D-Gal-(1→4)-D-Glc] | not affected | considerably inhibited; also recorded: more significantly inhibited by 6′-SL than the 3′-SL | more significantly inhibited by 6′-SL than the 3′-SL | considerably inhibited; also recorded: more significantly inhibited by 6′-SL than the 3′-SL | induced |
